Experimental data as given in patent publication US10457703B2, “Bile acid derivatives as FXR/TGR5 agonists and methods of use thereof” (ENANTA PHARMACEUTICALS, INC., priority 2015, dated 2019).

Molecular target: human FXR (NR1H4) (Homo sapiens (Human), UniProt Q96RI1)
Test: Human FXR (NR1H4) Assay (Gal4 promoter driven luciferase reporter, Indigo Bioscience kit);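 for Efficacy (%): 100% equals the efficacy of CDCA; efficacy normalized to CDCA set as 100%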
Type: cell-based
Conditions: for EC50: Human FXR (NR1H4) Assay, potency ranges; for Emax: read-out: Efficacy (%)
Method in brief: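 CHO reporter cells expressing human FXR with an FXR-responsive luciferase reporter, treated with compound doses at 0.2% DMSO. Incubation lasted 22 h at 37 °C before luciferase detection reagent was added. Luminescence was then read.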

Sequence of human FXR (NR1H4) (Q96RI1 whole entry, the tested form may be a part): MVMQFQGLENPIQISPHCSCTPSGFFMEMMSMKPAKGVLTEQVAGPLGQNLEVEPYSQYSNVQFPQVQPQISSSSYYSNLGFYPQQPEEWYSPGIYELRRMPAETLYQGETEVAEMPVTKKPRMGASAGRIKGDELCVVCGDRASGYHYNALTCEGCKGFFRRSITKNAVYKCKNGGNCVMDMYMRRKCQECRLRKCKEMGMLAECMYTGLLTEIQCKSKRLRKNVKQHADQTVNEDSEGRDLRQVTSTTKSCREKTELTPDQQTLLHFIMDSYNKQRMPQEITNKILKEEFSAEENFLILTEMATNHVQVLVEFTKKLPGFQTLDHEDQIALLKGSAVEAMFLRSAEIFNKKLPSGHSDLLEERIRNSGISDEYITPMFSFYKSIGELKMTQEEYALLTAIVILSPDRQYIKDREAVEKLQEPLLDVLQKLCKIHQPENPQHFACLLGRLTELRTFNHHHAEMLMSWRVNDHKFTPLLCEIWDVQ

Structure (SMILES)	EC50	Emax
CC[C@H]1[C@@H](O)[C@@H]2[C@H](CC[C@]3(C)[C@@H]([C@H](C)COC(=O)NS(=O)(=O)c4ccc5ccccc5c4)CC[C@@H]23)[C@@]2(C)CC[C@@H](O)C[C@@H]12 [Example 12]	< 100 nM	217%
CC[C@H]1[C@@H](O)[C@@H]2[C@H](CC[C@]3(C)[C@@H]([C@H](C)CCCOC(=O)N4CCC(N5CCCCC5)CC4)CC[C@@H]23)[C@@]2(C)CC[C@@H](O)C[C@@H]12 [Example 148]	1000 to 10000 nM	37%
CC[C@H]1[C@@H](O)[C@@H]2[C@H](CC[C@]3(C)[C@@H]([C@H](C)CCOC(=O)NCc4ccc(C(C)(C)C)cc4)CC[C@@H]23)[C@@]2(C)CC[C@@H](O)C[C@@H]12 [Example 189]	1000 to 10000 nM	215%
CC[C@H]1[C@@H](O)[C@@H]2[C@H](CC[C@]3(C)[C@@H]([C@H](C)CCOC(=O)NS(=O)(=O)c4ccc5c(c4)OCO5)CC[C@@H]23)[C@@]2(C)CC[C@@H](O)C[C@@H]12 [Example 93]	< 100 nM	288%
CC[C@H]1[C@@H](O)[C@@H]2[C@H](CC[C@]3(C)[C@@H]([C@H](C)CCOC(=O)NC4CCCCCC4)CC[C@@H]23)[C@@]2(C)CC[C@@H](O)C[C@@H]12 [Example 138]	100 to 1000 nM	297%
CC[C@H]1[C@@H](O)[C@@H]2[C@H](CC[C@]3(C)[C@@H]([C@H](C)CCOC(=O)NCC(C)(C)O)CC[C@@H]23)[C@@]2(C)CC[C@@H](O)C[C@@H]12 [Example 142]	100 to 1000 nM	247%
CC[C@H]1[C@@H](O)[C@@H]2[C@H](CC[C@]3(C)[C@@H]([C@H](C)CCOC(=O)NS(=O)(=O)c4cc(C(F)(F)F)cc(C(F)(F)F)c4)CC[C@@H]23)[C@@]2(C)CC[C@@H](O)C[C@@H]12 [Example 104-h]	1000 to 10000 nM	208%
CC[C@H]1[C@@H](O)[C@@H]2[C@H](CC[C@]3(C)[C@@H]([C@H](C)CCOC(=O)N4CCC(O)CC4)CC[C@@H]23)[C@@]2(C)CC[C@@H](O)C[C@@H]12 [Example 169]	100 to 1000 nM	257%
CCCCS(=O)(=O)NC(=O)OCC[C@@H](C)[C@H]1CC[C@H]2[C@@H]3[C@H](O)[C@H](CC)[C@@H]4C[C@H](O)CC[C@]4(C)[C@H]3CC[C@]12C [Example 57]	< 100 nM	392%
CC[C@H]1[C@@H](O)[C@@H]2[C@H](CC[C@]3(C)[C@@H]([C@H](C)CCOC(=O)NCc4ccccc4)CC[C@@H]23)[C@@]2(C)CC[C@@H](O)C[C@@H]12 [Example 125]	100 to 1000 nM	305%
CC[C@H]1[C@@H](O)[C@@H]2[C@H](CC[C@]3(C)[C@@H]([C@H](C)COC(=O)NS(=O)(=O)c4ccc(-n5ccnn5)nc4)CC[C@@H]23)[C@@]2(C)CC[C@@H](O)C[C@@H]12 [Example 44-n]	100 to 1000 nM	307%
CC[C@H]1[C@@H](O)[C@@H]2[C@H](CC[C@]3(C)[C@@H]([C@H](C)COC(=O)NS(=O)(=O)c4cccc(-c5ncco5)c4)CC[C@@H]23)[C@@]2(C)CC[C@@H](O)C[C@@H]12 [Example 44-i]	100 to 1000 nM	210%
CC[C@H]1[C@@H](O)[C@@H]2[C@H](CC[C@]3(C)[C@@H]([C@H](C)CCOC(=O)N[C@H]4CCC[C@@H]4O)CC[C@@H]23)[C@@]2(C)CC[C@@H](O)C[C@@H]12 [Example 208]	100 to 1000 nM	205%
CC[C@H]1[C@@H](O)[C@@H]2[C@H](CC[C@]3(C)[C@@H]([C@H](C)CCOC(=O)NS(=O)(=O)c4ccc5c(c4)CCC5)CC[C@@H]23)[C@@]2(C)CC[C@@H](O)C[C@@H]12 [Example 67]	< 100 nM	290%
CC[C@H]1[C@@H](O)[C@@H]2[C@H](CC[C@]3(C)[C@@H]([C@H](C)CCCOC(=O)NS(=O)(=O)N4CCCC4)CC[C@@H]23)[C@@]2(C)CC[C@@H](O)C[C@@H]12 [Example 119]	1000 to 10000 nM	370%
CC[C@H]1[C@@H](O)[C@@H]2[C@H](CC[C@]3(C)[C@@H]([C@H](C)CCOC(=O)NS(=O)(=O)c4cnn(C)c4)CC[C@@H]23)[C@@]2(C)CC[C@@H](O)C[C@@H]12 [Example 82]	1000 to 10000 nM	294%

Structure (SMILES)	EC50	Emax
CC[C@H]1[C@@H](O)[C@@H]2[C@H](CC[C@]3(C)[C@@H]([C@H](C)CCOC(=O)NS(=O)(=O)c4ccc(OC(F)(F)F)cc4)CC[C@@H]23)[C@@]2(C)CC[C@@H](O)C[C@@H]12 [Example 53]	< 100 nM	411%
CC[C@H]1[C@@H](O)[C@@H]2[C@H](CC[C@]3(C)[C@@H]([C@H](C)CCCOC(=O)Nc4ccc(C(C)(C)C)cc4)CC[C@@H]23)[C@@]2(C)CC[C@@H](O)C[C@@H]12 [Example 121]	1000 to 10000 nM	8%
CC[C@H]1[C@@H](O)[C@@H]2[C@H](CC[C@]3(C)[C@@H]([C@H](C)COC(=O)NS(=O)(=O)c4ccc(N5CCCCC5)nc4)CC[C@@H]23)[C@@]2(C)CC[C@@H](O)C[C@@H]12 [Example 14]	< 100 nM	270%
CC[C@H]1[C@@H](O)[C@@H]2[C@H](CC[C@]3(C)[C@@H]([C@H](C)COC(=O)NS(=O)(=O)c4ccc(-c5ccc(F)cc5)cc4)CC[C@@H]23)[C@@]2(C)CC[C@@H](O)C[C@@H]12 [Example 28]	< 100 nM	194%
CC[C@H]1[C@@H](O)[C@@H]2[C@H](CC[C@]3(C)[C@@H]([C@H](C)CCOC(=O)NS(=O)(=O)C(F)(F)F)CC[C@@H]23)[C@@]2(C)CC[C@@H](O)C[C@@H]12 [Example 108]	1000 to 10000 nM	309%
CC[C@H]1[C@@H](O)[C@@H]2[C@H](CC[C@]3(C)[C@@H]([C@H](C)CCOC(=O)NCCc4ccc(OC)c(OC)c4)CC[C@@H]23)[C@@]2(C)CC[C@@H](O)C[C@@H]12 [Example 144]	100 to 1000 nM	229%
CC[C@H]1[C@@H](O)[C@@H]2[C@H](CC[C@]3(C)[C@@H]([C@H](C)CCOC(=O)NS(=O)(=O)CC)CC[C@@H]23)[C@@]2(C)CC[C@@H](O)C[C@@H]12 [Example 98]	100 to 1000 nM	279%
CC[C@H]1[C@@H](O)[C@@H]2[C@H](CC[C@]3(C)[C@@H]([C@H](C)CCOC(=O)N4CCN(c5ccccc5OC)CC4)CC[C@@H]23)[C@@]2(C)CC[C@@H](O)C[C@@H]12 [Example 170]	< 100 nM	283%
CC[C@H]1[C@@H](O)[C@@H]2[C@H](CC[C@]3(C)[C@@H]([C@H](C)COC(=O)NS(=O)(=O)c4ccc(-c5ccc(OC(F)(F)F)cc5)cc4)CC[C@@H]23)[C@@]2(C)CC[C@@H](O)C[C@@H]12 [Example 33]	< 100 nM	266%
CC[C@H]1[C@@H](O)[C@@H]2[C@H](CC[C@]3(C)[C@@H]([C@H](C)COC(=O)NS(=O)(=O)c4ccc(C5CCCCC5)cc4)CC[C@@H]23)[C@@]2(C)CC[C@@H](O)C[C@@H]12 [Example 11]	< 100 nM	224%
CC[C@H]1[C@@H](O)[C@@H]2[C@H](CC[C@]3(C)[C@@H]([C@H](C)CCOC(=O)Nc4ccc5ccccc5c4)CC[C@@H]23)[C@@]2(C)CC[C@@H](O)C[C@@H]12 [Example 197]	1000 to 10000 nM	101%
CC[C@H]1[C@@H](O)[C@@H]2[C@H](CC[C@]3(C)[C@@H]([C@H](C)COC(=O)NC4CC4)CC[C@@H]23)[C@@]2(C)CC[C@@H](O)C[C@@H]12 [Example 198]	1000 to 10000 nM	139%
CC[C@H]1[C@@H](O)[C@@H]2[C@H](CC[C@]3(C)[C@@H]([C@H](C)COC(=O)NS(=O)(=O)N4CCCC4)CC[C@@H]23)[C@@]2(C)CC[C@@H](O)C[C@@H]12 [Example 13]	100 to 1000 nM	324%
CC[C@H]1[C@@H](O)[C@@H]2[C@H](CC[C@]3(C)[C@@H]([C@H](C)COC(=O)NS(=O)(=O)c4ccc(OC(F)(F)F)cc4)CC[C@@H]23)[C@@]2(C)CC[C@@H](O)C[C@@H]12 [Example 6]	100 to 1000 nM	298%
CC[C@H]1[C@@H](O)[C@@H]2[C@H](CC[C@]3(C)[C@@H]([C@H](C)CCOC(=O)N(C)OC)CC[C@@H]23)[C@@]2(C)CC[C@@H](O)C[C@@H]12 [Example 164]	100 to 1000 nM	191%
CC[C@H]1[C@@H](O)[C@@H]2[C@H](CC[C@]3(C)[C@@H]([C@H](C)COC(=O)NS(=O)(=O)c4ccc(-c5ccccc5)s4)CC[C@@H]23)[C@@]2(C)CC[C@@H](O)C[C@@H]12 [Example 10]	< 100 nM	259%
